Results from ChEMBL document CHEMBL1201862, “PubChem BioAssay data set” (2004).
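96-well plates; 48 h exposure; 5 concentrations. Endpoints by linear interpolation between flanking doses. Not reached: highest tested concentration assigned. GI50: concentration for 50% inhibition of growth.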 The source made the active and inactive calls. No stated cut-off is given here; in the data, active = GI50 up to about 1.1 µM and inactive = higher.

Experiments:
Test in all cases: NCI anticancer screen, dose series, 48 h
[1] = tested on: 786-0
[2] = tested on: A498
[3] = tested on: A549
[4] = tested on: ACHN
[5] = tested on: BT-549
[6] = tested on: CAKI-1
[7] = tested on: CCRF-CEM
[8] = tested on: COLO 205
[9] = tested on: DU-145
[10] = tested on: EKVX
[11] = tested on: HCC 2998
[12] = tested on: HCT-116
[13] = tested on: HCT-15
[14] = tested on: HL-60
[15] = tested on: HOP-62
[16] = tested on: HOP-92
[17] = tested on: HT-29
[18] = tested on: Hs-578T
[19] = tested on: IGROV-1
[20] = tested on: K562
[21] = tested on: KM12
[22] = tested on: LOX IMVI
[23] = tested on: M14
[24] = tested on: MCF7
[25] = tested on: MDA-MB-231
[26] = tested on: MDA-MB-435
[27] = tested on: MDA-N
[28] = tested on: MOLT-4
[29] = tested on: Malme-3M
[30] = tested on: NCI-H226
[31] = tested on: NCI-H23
[32] = tested on: NCI-H460
[33] = tested on: NCI-H522
[34] = tested on: NCI/ADR-RES
[35] = tested on: OVCAR-3
[36] = tested on: OVCAR-4
[37] = tested on: OVCAR-5
[38] = tested on: OVCAR-8
[39] = tested on: PC-3
[40] = tested on: RPMI-8226
[41] = tested on: RXF 393
[42] = tested on: SF-268
[43] = tested on: SF-295
[44] = tested on: SF-539
[45] = tested on: SK-MEL-28
[46] = tested on: SK-MEL-2
[47] = tested on: SK-MEL-5
[48] = tested on: SK-OV-3
[49] = tested on: SN12C
[50] = tested on: SNB-19
[51] = tested on: SNB-75
[52] = tested on: SR
[53] = tested on: SW-620
[54] = tested on: U-251
[55] = tested on: UACC-257
[56] = tested on: UACC-62
[57] = tested on: UO-31
[58] = tested on: TK-10

Oc1cc(-c2cccc3ccccc23)nc2ncccc12
GI50 [1]: 32.1 nM (active)
GI50 [2]: 20.6 nM (active)
GI50 [3]: 48.1 nM (active)
GI50 [4]: 32.5 nM (active)
GI50 [5]: 938 nM (active)
GI50 [6]: 24.2 nM (active)
GI50 [7]: 24.5 nM (active)
GI50 [8]: 15.4 nM (active)
GI50 [9]: 41.8 nM (active)
GI50 [10]: 94.8 nM (active)
GI50 [11]: 74.5 nM (active)
GI50 [12]: 26.1 nM (active)
GI50 [13]: 6.27 nM
GI50 [14]: 4.01 nM (active)
GI50 [15]: 962 nM (active)
GI50 [16]: 434 nM (active)
GI50 [17]: 17.3 nM (active)
GI50 [18]: 52.4 nM (active)
GI50 [19]: 61.1 nM (active)
GI50 [20]: 5.25 nM (active)
GI50 [21]: 12.2 nM (active)
GI50 [22]: 33 nM (active)
GI50 [23]: 15.9 nM (active)
GI50 [24]: 6.93 nM (active)
GI50 [25]: 172 nM (active)
GI50 [26]: 0.865 nM (active)
GI50 [27]: 1.19 nM (active)
GI50 [28]: 50.6 nM (active)
GI50 [29]: 2.25 nM (active)
GI50 [30]: 33.9 nM (active)
GI50 [31]: 35 nM (active)
GI50 [32]: 44.3 nM (active)
GI50 [33]: 20.1 nM (active)
GI50 [34]: 20.6 nM (active)
GI50 [35]: 4.57 nM (active)
GI50 [36]: 54.2 nM (active)
GI50 [37]: 47.2 nM (active)
GI50 [38]: 50 nM (active)
GI50 [39]: 18.2 nM (active)
GI50 [40]: 24.3 nM (active)
GI50 [41]: 15 nM (active)
GI50 [42]: 20.1 nM (active)
GI50 [43]: 38.8 nM (active)
GI50 [44]: 19.7 nM (active)
GI50 [45]: 54.6 nM (active)
GI50 [46]: 17.8 nM (active)
GI50 [47]: 2.1 nM (active)
GI50 [48]: 17.6 nM (active)
GI50 [49]: 90 nM (active)
GI50 [50]: 27.4 nM (active)
GI50 [51]: 6.84 nM (active)
GI50 [52]: 5.65 nM (active)
GI50 [53]: 34.4 nM (active)
GI50 [54]: 21.1 nM (active)
GI50 [55]: 1.52 nM (active)
GI50 [56]: 10.2 nM (active)
GI50 [57]: 40.2 nM (active)

CCC(O)(Cc1ccc(OC)cc1)c1ccc(OC)cc1 (centres undefined)
GI50 [1]: > 100000 nM (inactive)
GI50 [2]: > 100000 nM (inactive)
GI50 [3]: > 100000 nM (inactive)
GI50 [4]: > 100000 nM (inactive)
GI50 [5]: > 100000 nM (inactive)
GI50 [6]: > 100000 nM (inactive)
GI50 [7]: > 100000 nM (inactive)
GI50 [8]: > 100000 nM (inactive)
GI50 [9]: > 100000 nM (inactive)
GI50 [10]: > 100000 nM (inactive)
GI50 [11]: > 100000 nM (inactive)
GI50 [12]: > 100000 nM (inactive)
GI50 [13]: > 100000 nM
GI50 [14]: > 100000 nM (inactive)
GI50 [15]: > 100000 nM (inactive)
GI50 [16]: > 100000 nM (inactive)
GI50 [17]: > 100000 nM (inactive)
GI50 [18]: > 100000 nM (inactive)
GI50 [19]: > 100000 nM (inactive)
GI50 [20]: > 100000 nM (inactive)
GI50 [21]: > 100000 nM (inactive)
GI50 [22]: > 100000 nM (inactive)
GI50 [23]: > 100000 nM (inactive)
GI50 [24]: > 100000 nM (inactive)
GI50 [25]: > 100000 nM (inactive)
GI50 [26]: > 100000 nM (inactive)
GI50 [27]: > 100000 nM (inactive)
GI50 [28]: > 100000 nM (inactive)
GI50 [29]: > 100000 nM (inactive)
GI50 [30]: > 100000 nM (inactive)
GI50 [31]: > 100000 nM (inactive)
GI50 [32]: > 100000 nM (inactive)
GI50 [33]: > 100000 nM (inactive)
GI50 [34]: > 100000 nM (inactive)
GI50 [35]: > 100000 nM (inactive)
GI50 [36]: 84700 nM (inactive)
GI50 [37]: > 100000 nM (inactive)
GI50 [38]: > 100000 nM (inactive)
GI50 [39]: > 100000 nM (inactive)
GI50 [40]: > 100000 nM (inactive)
GI50 [41]: > 100000 nM (inactive)
GI50 [42]: > 100000 nM (inactive)
GI50 [43]: > 100000 nM (inactive)
GI50 [44]: > 100000 nM (inactive)
GI50 [46]: > 100000 nM (inactive)
GI50 [47]: > 100000 nM (inactive)
GI50 [48]: > 100000 nM (inactive)
GI50 [49]: > 100000 nM (inactive)
GI50 [50]: > 100000 nM (inactive)
GI50 [51]: > 100000 nM (inactive)
GI50 [52]: 64.1 nM (active)
GI50 [53]: > 100000 nM (inactive)
GI50 [58]: > 100000 nM (inactive)
GI50 [54]: > 100000 nM (inactive)
GI50 [55]: > 100000 nM (inactive)
GI50 [56]: > 100000 nM (inactive)
GI50 [57]: > 100000 nM (inactive)
